Here are results for nine molecules from patent US11168302B2, “Method for differentiation into retinal ganglion cells from stem cells” (ClavisTherapeutics, INC., priority 2014, dated 2021).

The subject of assay [1] is human pluripotent stem cell-derived retinal ganglion cell line. The assay is described as follows: Live cell Ca2+ imaging of retinal ganglion cell line. The note with it: 1 mM glutamate stimulation; Fluo-4; passaged cell line. It counts as cell-based. The protocol: For calcium imaging, cells cultured on 18 mm coverslip were washed with Tyrode's solution (119 mM NaCl, 2.5 mM KCl, 2 mM CaCl2), 2 mM MgCl2, 25 mM HEPES, 30 mM glucose, pH 7.4) twice or three times, and then cultured at 37° C. with addition of 1 μM Fluo-4-AM (Life technologies, Carlsbad, Calif., USA). After culturing for 15 min, cells were washed with Tyrode's solution for 10 min. Time differential images were obtained by using an Olympus IX-71 inverted microscope (Olympus, Tokyo, Japan) equipped with 40×(1.0 NA) oil lens and EMCCD (iXon887, Andor Technologies, Belfast, Northern Ireland) every 0.5 sec for 30 min. From the 10th image frame, cells were stimulated with 1 mM glutamate. After stimulation, cells were infused with Tyrode's solution.

In assay [2] the test system is human embryonic stem cell-derived retinal ganglion cells. The assay is described as follows: Differentiation by other Wnt signaling pathway and Shh receptor activators, immunofluorescence of Islet-1 and NF200. The format is cell-based. The note with it: day 39, Protocol A schedule; BIO 2 μM, Norrin 50 ng/mL, purmorphamine 1 μM, RA 500 nM. The protocol:
On day 14 after induction of differentiation, retinal progenitor cells generated in Example 3 were cultured and differentiated into immature retinal ganglion cells for 3 days in a differentiation medium [DMEM/F12 (Invitrogen), 1 mM L-glutamine (Invitrogen), 0.1 mM nonessential amino acids (Invitrogen), 0.1 mM mercaptoethanol (Sigma-Aldrich), 1% B27 supplement (Invitrogen), 1% N2 supplement (Invitrogen), 10 ng/mL Noggin, 10 ng/mL IGF-1, 5 ng/mL FGF2, 50 ng/mL recombinant Wnt3a (R&D Systems)] containing 2 μM BIO (6-bromoindirubin-3′-oxime) or 50 ng/mL Norrin as the Wnt signaling pathway activator instead of 50 ng/mL recombinant Wnt3a. On day 17 after induction of differentiation, immature retinal ganglion cells thus generated were cultured and differentiated into mature retinal ganglion cells for 5 days in a differentiation medium [DMEM/F12 (Invitrogen), 1 mM L-glutamine (Invitrogen), 0.1 mM nonessential amino acids (Invitrogen), 0.1 mM mercaptoethanol (Sigma-Aldrich), 1% B27 supplement (Invitrogen), 1% N2 supplement (Invitrogen), 10 ng/mL IGF-1, 250 ng/mL recombinant Shh (R&D Systems)] containing 1 μM purmorphamine as the Shh receptor activator instead of 250 ng/mL Shh. On day 22 after induction of differentiation, the mature retinal ganglion cells were matured for 39 days using a medium prepared by adding 500 nM retinoic acid (RA) to the above differentiation medium.
The immunofluorescence assay of the cells generated by this method was performed using retinal ganglion cell markers, Islet-1 and NF200, and the results were consistent with the results of using Wnt3a and Shh (FIG. 21).

Assay [3] concerns voltage-gated sodium channel. It counts as cell-based, human.
Assay [4] has as its system outward potassium current. Nature of the assay: Whole-cell patch clamp recording of potassium current in stem cell-derived retinal ganglion cells. The format is cell-based, human. The note with it: Protocol A, 4-AP 1 mM. Background: Patch clamp records ionic current or voltage across a cell membrane.
A further assay deals with AMPA receptor. Nature of the assay: Recording of spontaneous excitatory postsynaptic currents (sEPSCs) in stem cell-derived retinal ganglion cells. It counts as cell-based, human. The note with it: H9-derived RGCs, CNQX 50 μM.
For another assay, the system named is retinal ganglion cells. Nature of the assay: Effects of Wnt3a, Shh and RA in Protocol A differentiation, immunofluorescence assay with retinal ganglion cell-specific markers. The format is cell-based, human. More on the design: production of retinal ganglion cells: dose or concentration left out as unconfirmed. The note with it: day 39. The protocol: After being blocked for 90 min, the slides in each differentiation step were incubated overnight at 4° C. with antibodies specific to cells of each differentiation step as given in Table 1. Before use, these antibodies were diluted in a PBS solution containing 1% BSA and 0.25% Triton X-100. The cells cultured on the slides in each step were washed three times for 5 min with PBS and incubated at room temperature for 2 hr with species-specific secondary antibody conjugated with Cy3 (1:800, Jackson Immunoresearch Laboratory) or Alexa488 (1:500, Invitrogen) (Table 1). A standard material suitable for the primary and the secondary antibodies was used to examine non-specific staining or interaction between the antibodies. Thereafter, the cells were washed three times for 5 min with PBS, counterstained with DAPI (4′,6-diamidino-2 phenylindole) and mounted in Vectashield (Vector Laboratories), followed by visualization under an epifluorescence microscope (Nikon Eclipse, E800, Tokyo, Japan) and a confocal microscope (Zeiss LSM510, Carl Zeiss, Inc, Thornwood, N.Y., USA). 500 cells were counted from 20 microscopic fields randomly selected at 400 magnification and evaluated for positive responses to each antibody. Positive responses to antibodies were determined after at least three evaluations.
To examine effects of each of Wnt3a, Shh and RA used in the Protocol A differentiation method during production of retinal ganglion cells, respective factors were treated according to a differentiation schedule of Protocol A, and on day 39 after induction of differentiation, an immunofluorescence assay was performed using retinal ganglion cell-specific markers (FIG. 22).

“Also recorded” adds a separate entry of the source. Bounds are passed on as bounds.

Regarding `N[C@@H](CCC(=O)O)C(=O)O` [glutamate], in assay [1], the cytoplasmic calcium level result is given as “considerably increased; also recorded: considerable increase”. For the molecule `c1ccc2c(Oc3nc(Nc4ccc(N5CCOCC5)cc4)c4ncn(C5CCCCC5)c4n3)cccc2c1` [purmorphamine], in assay [2], the “immunofluorescence staining of Islet-1 and NF200 compared with Wnt3a and Shh” value is “consistent with the immunofluorescence staining results of Wnt3a and Shh”.

For `O=C1Nc2cc(Br)ccc2/C1=C1/Nc2ccccc2/C1=N\O` [BIO, 6-bromoindirubin-3′-oxime], the “immunofluorescence staining of Islet-1 and NF200 compared with Wnt3a and Shh” value in assay [2] is “consistent with the immunofluorescence staining results of Wnt3a and Shh”. For `NC1=N[C@H](O)[C@H]2[C@H]3O[C@]4(O)O[C@@H]([C@@H](O)[C@@]2(N1)[C@@H]4O)[C@]3(O)CO` [tetrodotoxin], in assay [3], the “fast-activating and inactivating inward sodium currents” value is listed as “completely blocked”.

On to `Nc1ccncc1` [4-Aminopyridine, 4-aminopyridine], for which the “fast-activating fraction of outward potassium current” value in assay [4] (H9-derived RGCs, day 59) is “blocked”; in assay [4] (iPSC-derived RGCs, day 39) it was “blocked”. For the molecule `N#Cc1cc2c(cc1[N+](=O)[O-])=NC(=O)C(=O)N=2` [CNQX, 6-cyano-7-nitroquinoxaline-2,3-dione], the “appearance of sEPSCs” value in the assay with AMPA receptor (Protocol A, day 59) was “blocked”; in the assay on AMPA receptor (Protocol B, day 96), “blocked”.

B1: Norrin: Wnt signaling pathway activator; binds to Frizzled4 receptor (protein, UniProt Q00604 25-133, looked up)
Norrin: KTDSSFIMDSDPRRCMRHHYVDSISHPLYKCSSKMVLLARCEGHCSQASRSEPLVSFSTVLKQPFRSSCHCCRPQTSKLKALRLRCSGGMRLTATYRYILSCHCEECNS
On to B1, for which, in assay [2], the “immunofluorescence staining of Islet-1 and NF200 compared with Wnt3a and Shh” value is “consistent with the immunofluorescence staining results of Wnt3a and Shh”.

B2: Dkkl: Wnt3a antagonist; recombinant Dickkopf-1, Wnt signaling pathway inhibitor (protein, UniProt O94907 32-266, looked up)
Dickkopf-related protein 1: TLNSVLNSNAIKNLPPPLGGAAGHPGSAVSAAPGILYPGGNKYQTIDNYQPYPCAEDEECGTDEYCASPTRGGDAGVQICLACRKRRKRCMRHAMCCPGNYCKNGICVSSDQNHFRGEIEETITESFGNDHSTLDGYSRRTTLSSKMYHTKGQEGSVCLRSSDCASGLCCARHFWSKICKPVLKEGQVCTKHRRKGSHGLEIFQRCYCGEGLSCRIQKDHHQASNSSRLHTCQRH
With B2, the “production of retinal ganglion cells” value in the assay on retinal ganglion cells (instead of Wnt3a days 14 to 17, Shh and RA per schedule) is “hardly produced”.

B3: Wnt3a: recombinant Wnt3a, Wnt signaling pathway activator (protein, UniProt P56704 19-352, looked up)
Protein Wnt-3a: SYPIWWSLAVGPQYSSLGSQPILCASIPGLVPKQLRFCRNYVEIMPSVAEGIKIGIQECQHQFRGRRWNCTTVHDSLAIFGPVLDKATRESAFVHAIASAGVAFAVTRSCAEGTAAICGCSSRHQGSPGKGWKWGGCSEDIEFGGMVSREFADARENRPDARSAMNRHNNEAGRQAIASHMHLKCKCHGLSGSCEVKTCWWSQPDFRAIGDFLKDKYDSASEMVVEKHRESRGWVETLRPRYTYFKVPTERDLVYYEASPNFCEPNPETGSFGTRDRTCNVSSHGIDGCDLLCCGRGHNARAERRREKCRCVFHWCCYVSCQECTRVYDVHTCK
For B3, in the assay on retinal ganglion cells (Protocol A schedule), the “caliber growth and fasciculation of axons (NF200 staining)” value is “delayed”; the “synaptogenesis and dendritic spine development (TUJ1 staining)” value is “no synaptogenesis and dendritic spine development”. Moreover, the “retinal ganglion cells produced” value with retinal ganglion cells (factors treated per Protocol A schedule) is at least 80%.
